This note sets out measurements from patent US20220396567A1, “SUBSTITUTED PYRIMIDINE FOR THE TREATMENT AND PROPHYLAXIS OF HEPATITIS B VIRUS INFECTION” (Hoffmann-La Roche Inc., priority 2019, published 2022).

The test system of the assay is HBV. As to the kind of experiment: Cryopreserved primary human hepatocytes (PHH) HBV infection assay, extracellular HBsAg by CLIA. It counts as cell-based. As to conditions: Hepatitis B virus, Hepatocyte, 216 h; HBV-infected cryopreserved PHH; extracellular HBsAg at 9 days post-compound treatment; 4 parameter logistic curve fit. How it is done:
This assay is used to confirm the anti-HBV effect of the compounds in HBV PHH infection assay. Cryopreserved PHH (BioreclamationIVT, Lot YJM) was thawed at 37° C. and gently transferred into pre-warmed InVitroGRO HT medium (BioreclamationIVT, Cat. S03317). The mixture was centrifuged at 70 relative centrifugal force (RCF) for 3 min at RT, and the supernatant was discarded. Pre-warmed InVitroGRO CP medium (BioreclamationIVT, Cat #S03316) was added to the cell pellet to gently re-suspend cells. The cells were seeded at the density of 5.8×10^4 cells per well to collagen I coated 96-well plate (Gibco, Cat. A1142803) with the InVitroGRO CP medium. All plates were incubated at 37° C. with 5% CO2 and 85% humidity.
At 20 hrs after plating, the medium was changed to PHH culture medium (Dulbecco's Modified Eagle Medium (DMEM)/F12 (1:1) (Gibco, Cat. 11320-033), 10% fetal bovine serum (Gibco Cat. 10099141), 100 U/mL penicillin, 100 μg/mL streptomycin (Gibco, Cat. 151401-122), […] (Invitrogen Cat. PHG0311L), 20 ng/mL dexamethasone (Sigma, Cat. D4902) and 250 ng/mL human recombinant insulin (Gibco, Cat. 12585-014)). And the cells were incubated at 37° C. with 5% CO2 and 85% humidity for 4 hrs. The medium was then changed to pre-warmed PHH culture medium containing 4% polyethylene glycol (PEG) MW8000 (Sigma, Cat. P1458-50 ML) and 1% DMSO (Sigma, Cat. D2650). 5.8×10^6 genomic equivalents of HBV were added into the medium.
At 24 hrs post-infection, the cells were gently washed with PBS and refreshed with PHH culture medium supplemented with 1% DMSO, and 0.25 mg/mL Matrix gel (Corning, Cat. 356237) at 200 μL per well. All plates were immediately placed in at 37° C. CO2 incubator.
24 hrs later, serial dilutions of compounds made with DMSO were further diluted with the same culture medium (PHH culture medium supplemented with 1% DMSO and 0.25 mg/mL Matrix gel as described above) before they were added to the cells to reach desired final compound concentrations and 1% DMSO concentration. The medium containing the compounds were refreshed every three days.
At 9 days post-compound treatment, extracellular HBsAg level were measured with Chemiluminescence Immuno Assay (CLIA) kit (Autobio, HBsAg Quantitative CLIA).
HBsAg IC50 was derived from the dose-response curve using 4 parameter logistic curve fit method. The compounds of formula (I) have HBsAg IC50<20 μM, particularly <1 μM.

As for `N#Cc1c(NCC2CCCCC2)ncnc1-c1ccco1` [Example 27, 4-(cyclohexylmethylamino)-6-(2-furyl)pyrimidine-5-carbonitrile], half-maximal inhibition (IC50) required 6.83 µM. In other words, the single-digit micromolar range.
In the case of `Nc1nc(NCC2CCCC2)c(C(=O)O)c(-c2ccco2)n1` [Example 41, 2-amino-4-(cyclopentylmethylamino)-6-(2-furyl)pyrimidine-5-carboxylic acid], the IC50 (in general, the concentration that gives 50% inhibition) came to 3.24 µM. This IC50 is about 2.1-fold lower than that of the compound before.
In the case of `CCOc1nc(NCc2cccc(C(F)(F)F)c2)c(C#N)c(-c2ccco2)n1` [Example 18, 2-ethoxy-4-(2-furyl)-6-[[3-(trifluoromethyl)phenyl]methylamino]pyrimidine-5-carbonitrile], the half-maximal inhibitory concentration (IC50) is 6.02 µM.
As to `N#Cc1c(NCc2ccccc2Cl)ncnc1-c1ccco1` [Example 24, 4-[(2-chlorophenyl)methylamino]-6-(2-furyl)pyrimidine-5-carbonitrile], the concentration for half-maximal inhibition (IC50) turned out to be 3.07 µM.
Regarding `COc1ccccc1CNc1nc(N)nc(-c2ccco2)c1C(=O)O` [Example 40, 2-amino-4-(2-furyl)-6-[(2-methoxyphenyl)methylamino]pyrimidine-5-carboxylic Acid], half-maximal inhibition (IC50) required 6.67 µM.
As to `CN(Cc1ccccc1)c1nc(N)nc(-c2ccco2)c1C(=O)O` [Example 42, 2-amino-4-[benzyl(methyl)amino]-6-(2-furyl)pyrimidine-5-carboxylic Acid], half-maximal inhibition (IC50) was put at 5.27 µM.
`COCCNc1nc(NCc2cccc(Cl)c2)c(C(=O)O)c(-c2ccco2)n1` [Example 59, 4-[(3-chlorophenyl)methylamino]-6-(2-furyl)-2-(2-methoxyethylamino)pyrimidine-5-carboxylic Acid] displayed an IC50 of 3.71 µM.
`CC(C)CNc1nc(NCc2cccc(C(F)(F)F)c2)c(C(=O)O)c(-c2ccco2)n1` [Example 50, 4-(2-furyl)-2-(isobutylamino)-6-[[3-(trifluoromethyl)phenyl]methylamino]pyrimidine-5-carboxylic Acid] registered an IC50 of 8.62 µM. This IC50 is about 2.3-fold higher than that of the compound before.
The compound `CC(C)Oc1ccc(CNc2nc(N)nc(-c3ccco3)c2C#N)cc1Br` [Example 2, 2-amino-4-[(3-bromo-4-isopropoxy-phenyl)methylamino]-6-(2-furyl)pyrimidine-5-carbonitrile] had a half-maximal inhibitory concentration (IC50) of 3.28 µM.
`CC(C)CNc1ncnc(-c2ccco2)c1C#N` [Example 26, 4-(2-furyl)-6-(isobutylamino)pyrimidine-5-carbonitrile] returned a concentration for half-maximal inhibition (IC50) of 5.7 µM.
In turn, `Nc1nc(NCc2cccc(C(F)(F)F)c2)c(C(=O)N2CCCC2)c(-c2ccco2)n1` [Example 53, [2-amino-4-(2-furyl)-6-[[3-(trifluoromethyl)phenyl]methylamino]pyrimidin-5-yl]-pyrrolidin-1-yl-methanone] yielded a concentration for half-maximal inhibition (IC50) of 9.25 µM.
As to `N#Cc1c(NCCc2ccccc2)ncnc1-c1ccco1` [Example 28, 4-(2-furyl)-6-(2-phenylethylamino)pyrimidine-5-carbonitrile], the concentration for half-maximal inhibition (IC50) came to 0.42 µM.
On to `Nc1nc(NCc2cccc(C(F)(F)F)c2)c(C(=O)O)c(-c2ccco2)n1` [Example 38, 2-amino-4-(2-furyl)-6-[[3-(trifluoromethyl)phenyl]methylamino]pyrimidine-5-carboxylic Acid], for which the concentration for half-maximal inhibition (IC50) is 2.49 µM.
Compound `COc1cccc(CN(C)c2nc(N)nc(-c3ccco3)c2C#N)c1` [Example 6] registered an IC50 of 10.1 µM.
In the case of `COc1nc(NCc2cccc(C(F)(F)F)c2)c(C#N)c(-c2ccco2)n1` [Example 17, 4-(2-furyl)-2-methoxy-6-[[3-(trifluoromethyl)phenyl]methylamino]pyrimidine-5-carbonitrile], the concentration for half-maximal inhibition (IC50) was 3.35 µM.
Regarding `CCOC(=O)c1c(NCc2c(Br)ccc(OC)c2OC)nc(N)nc1-c1ccco1` [Example 44, Ethyl 2-amino-4-[(6-bromo-2,3-dimethoxy-phenyl)methylamino]-6-(2-furyl)pyrimidine-5-carboxylate], the half-maximal inhibitory concentration (IC50) stood at 8.06 µM.
Under `CCOC(=O)c1c(NCc2cccc(C(F)(F)F)c2)nc(C)nc1-c1ccco1` [Example 61, Ethyl 4-(2-furyl)-2-methyl-6-[[3-(trifluoromethyl)phenyl]methylamino]pyrimidine-5-carboxylate] stands 7.38 µM.
